According to patent publication US11299500B2, “Crystalline form of lorlatinib free base hydrate” (Pfizer Inc., priority 2017, dated 2022):
Each block holds one compound with its values, some of them ahead of it.

What was measured:
[1] = Water sorption/desorption study by DVS; type: physicochemical
Method: A DVS method was employed to study the sorption/desorption behavior of Form 24.
Method: The method involved a standard sorption run from 0% RH to 90% RH, employing humidity rise at steps of 10% RH at 20° C., followed by a de-sorption run down to 0% RH and a second sorption/desorption cycle from 0% RH to 90% RH in 10% step change of RH at 20° C.

[2] = Physical stability in aqueous-based formulations; type: physicochemical; details: relative to anhydrous free base (Form 7) and acetic acid solvate (Form 3); e.g., topical formulations
[3] = tested on: anaplastic lymphoma kinase (ALK); details: wild type and resistance mutant forms, including ALK G1202R; cited from earlier work
[4] = tested on: ALK-positive NSCLC xenograft models and intracranial ALK-positive tumor models; details: cited from earlier work
[5] = tested on: c-ros oncogene 1 (ROS1) receptor tyrosine kinase; details: wild type and resistance mutant forms, including ROS1 G2032R; cited from earlier work
[6] = targeted relative humidity 0% RH, 20° C.
[7] = targeted relative humidity 10% RH, 20° C.
[8] = targeted relative humidity 20% RH, 20° C.
[9] = targeted relative humidity 30% RH, 20° C.
[10] = targeted relative humidity 40% RH, 20° C.
[11] = targeted relative humidity 50% RH, 20° C.
[12] = targeted relative humidity 60% RH, 20° C.
[13] = targeted relative humidity 70% RH, 20° C.
[14] = targeted relative humidity 80% RH, 20° C.
[15] = targeted relative humidity 90% RH, 20° C.

- hysteresis of de-sorption isotherms with respect to sorption isotherm ([1]; 0-90% RH, 20° C.): very little hysteresis
- % Water First Cycle [1, 6]: 0.00%
- % Water Second Cycle [1, 6]: 0.00%
- % Water First Cycle [1, 7]: 0.06%
- % Water Second Cycle [1, 7]: 0.06%
- % Water First Cycle [1, 8]: 0.13%
- % Water Second Cycle [1, 8]: 0.13%
- % Water First Cycle [1, 9]: 0.19%
- % Water Second Cycle [1, 9]: 0.20%
- % Water First Cycle [1, 10]: 0.27%
- % Water Second Cycle [1, 10]: 0.27%
- % Water First Cycle [1, 11]: 0.34%
- % Water Second Cycle [1, 11]: 0.35%
- % Water First Cycle [1, 12]: 0.43%
- % Water Second Cycle [1, 12]: 0.44%
- % Water First Cycle [1, 13]: 0.52%
- % Water Second Cycle [1, 13]: 0.54%
- % Water First Cycle [1, 14]: 0.64%
- % Water Second Cycle [1, 14]: 0.65%
- % Water First Cycle [1, 15]: 0.78%
- % Water Second Cycle [1, 15]: 0.78%
- change of mass between a dry and wet state ([1]; water level change between dry and wet state): below 1%
- physical stability in aqueous-based formulations [2]: improved physical stability
SMILES: C[C@H]1Oc2cc(cnc2N)-c2c(nn(C)c2C#N)CN(C)C(=O)c2ccc(F)cc21 [Form 24, (10R)-7-amino-12-fluoro-2,10,16-trimethyl-15-oxo-10,15,16,17-tetrahydro-2H-8,4-(metheno)pyrazolo[4,3-h][2,5,11]benzoxadiazacyclotetra-decine-3-carbonitrile (lorlatinib) Free Base Hydrate (Form 24)]

SMILES: C[C@H]1Oc2cc(cnc2N)-c2c(nn(C)c2C#N)CN(C)C(=O)c2ccc(F)cc21 [Lorlatinib, (10R)-7-amino-12-fluoro-2,10,16-trimethyl-15-oxo-10,15,16,17-tetra-hydro-2H-8,4-(metheno)pyrazolo[4,3-h][2,5,11]benzoxadiazacyclotetradecine-3-carbonitrile]
- potency against ALK [3]: nanomolar potency
- antitumor activity [4]: demonstrated antitumor activity
- potency against ROS1 [5]: nanomolar potency
